Among the test systems are NCI-H23 lung; A549 NSCLC; NCI-H522 lung; SK-OV-3 ovarian; SW-620 colon; SNB-19 CNS; HCT-15 colon; SF-539 CNS; SN12C renal; KM12 colon.
Holding throughout (assay): NCI anticancer screen, dose series, 48 h

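Cells were grown in 96-well plates and exposed to each compound for 48 hours at five concentrations; endpoints were interpolated linearly between bracketing concentrations, or set to the highest concentration if not reached. Here, GI50 denotes the concentration required for 50% inhibition of growth. TGI: concentration producing complete growth inhibition.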 Bounds are passed on as bounds.

Take `COC(=O)c1cc(-c2cccn2C)c2c(c1C(=O)OC)c1ccccc1n2C`: the TGI was > 100 µM with NCI-H23 lung; > 100 µM with A549 NSCLC; 80.9 µM in the assay on NCI-H522 lung; > 100 µM in the assay on SK-OV-3 ovarian; > 100 µM in the assay on SW-620 colon; > 100 µM in the assay on SNB-19 CNS. For the same compound, the TGI in the assay with HCT-15 colon, with SF-539 CNS, in the assay on SN12C renal and in the assay with KM12 colon was > 100 µM throughout.

Turning to `O=c1[nH]c(-c2ccc(-c3nc4cc([N+](=O)[O-])ccc4c(=O)[nH]3)cc2)nc2cc([N+](=O)[O-])ccc12`, the TGI in the assay on NCI-H23 lung, in the assay with A549 NSCLC, in the assay on NCI-H522 lung, in the assay on SK-OV-3 ovarian, with SW-620 colon and with SNB-19 CNS was > 100 µM each time. Further, the TGI in the assay on HCT-15 colon, with SF-539 CNS, with SN12C renal and in the assay with KM12 colon was > 100 µM each time.

For the compound `O=C(c1cccnc1)c1cc(-c2ccccn2)c(=O)n2ccccc12`, the GI50 with NCI-H23 lung, in the assay with A549 NSCLC, in the assay with NCI-H522 lung, in the assay with SK-OV-3 ovarian, with SW-620 colon and in the assay with SNB-19 CNS was > 100 µM throughout. The GI50 with HCT-15 colon, in the assay on SF-539 CNS, with SN12C renal and with KM12 colon was > 100 µM throughout. The TGI in the assay on NCI-H23 lung, in the assay on A549 NSCLC, in the assay with NCI-H522 lung, in the assay with SK-OV-3 ovarian, in the assay on SW-620 colon and in the assay with SNB-19 CNS was > 100 µM throughout. Moreover, the TGI with HCT-15 colon, with SF-539 CNS, in the assay on SN12C renal and in the assay on KM12 colon was > 100 µM in each case.

Consider `Cn1cc(-c2ccc(-c3cn(C)c4ccc(Cl)cc34)s2)c2cc(Cl)ccc21`, for which the GI50 with NCI-H23 lung, in the assay with A549 NSCLC, in the assay with NCI-H522 lung, in the assay with SK-OV-3 ovarian, in the assay on SW-620 colon and in the assay with SNB-19 CNS was > 100 µM throughout. Besides, the GI50 in the assay on HCT-15 colon, in the assay on SF-539 CNS, in the assay on SN12C renal and in the assay with KM12 colon was > 100 µM in each case. Also, the TGI in the assay with NCI-H23 lung, in the assay with A549 NSCLC, in the assay with NCI-H522 lung, with SK-OV-3 ovarian, with SW-620 colon and in the assay on SNB-19 CNS was > 100 µM in each case. The TGI with HCT-15 colon, in the assay with SF-539 CNS, in the assay on SN12C renal and in the assay with KM12 colon was > 100 µM each time.

The record behind these values is PubChem BioAssay (NCI).
